system: model animals of ulcerative colitis (3% DSS); assay: Therapeutic experiment using model animals of ulcerative colitis (Example 4); type: in vivo, C57BL6 mice; conditions: DSS mice, 5-ASA 300 mg/kg/day, Day 7
Protocol: To C57BL6 mice of 8 weeks old, 3% DSS (dextran sulfate sodium)-containing water or water (control) was administered by allowing the mice to drink it for 7 days. For the mice to which DSS was administered, groups in which 5-ASA (compound name: 5-aminosalicylic acid; generic name: Mesalazine), which is a therapeutic agent for inflammatory bowel diseases, the compound synthesized in Example 2-7 (H-31), or the compound synthesized in Example 2-36 (H-179) was administered, and a group in which no compound was administered were provided. On Day 7 after the beginning of the administration, the body weight of each mouse was measured, and the large intestine was removed from the mouse, followed by carrying out histological study. […] In FIGS. 4(A) and (B), “normal” indicates a case where water was administered, and “DSS” indicates cases where DSS-containing water was administered. “non” indicates a case where no compound was administered, and “5-ASA”, “H-31”, and “H-179” indicate cases where the respective compounds were administered. The dose was as follows: 5-ASA, 300 mg/kg/day; H-31, 1 mg/kg/day; H-179, 1 mg/kg/day. As shown in FIG. 4(A), weight loss due to inflammation of the intestine was found in the cases where DSS was administered.

**Q.** With `Nc1ccc(O)c(C(=O)O)c1` [Compound 5-ASA, 5-aminosalicylic acid, reference compound] as the compound, how does the “tissue damage in the large intestine (stained section)” value read?
**A.** tissue damage in the large intestine due to DSS was found

same assay, conditions: DSS mice, compound 1 mg/kg/day, Day 7

**Q.** Which “tissue damage in the large intestine (stained section)” value does the source give for `O=C(COc1cccc2ccccc12)O[C@H](Cc1ccc2ccccc2c1)C(=O)O` [Compound H-179] here?
**A.** tissue damage in the large intestine was hardly found

same assay, conditions: DSS mice, compound 1 mg/kg/day, Day 7, vs no compound

**Q.** For `O=C(COc1cccc2ccccc12)O[C@H](Cc1ccc2ccccc2c1)C(=O)O` [Compound H-179], which “weight loss (body weight as ratio to body weight before administration)” value is on record?
**A.** the weight loss was significantly smaller

target: T1, Pin1 (Homo sapiens, UniProt Q13526); assay: Evaluation of inhibitory activity on function of Pin1: cell assay using degree of AMPK phosphorylation as index; type: cell-based; set-up: key to Pin1 inhibitory activity: −: Promotion of AMPK phosphorylation was not (or hardly) found.; +: Phosphorylation of AMPK was promoted, but the promotion was weaker than that by C1.; ++: Phosphorylation of AMPK was promoted to the same degree as in the case of C1.; +++: Phosphorylation of AMPK was promoted more strongly than in the case of C1; conditions: 293T cells, compound 100 μM, 10 mM 2-DG, pAMPK immunoblot rated by comparison with C1
T1 construct: endogenous in cells; host or cells: 293T cells
T1 sequence (Q13526 whole entry): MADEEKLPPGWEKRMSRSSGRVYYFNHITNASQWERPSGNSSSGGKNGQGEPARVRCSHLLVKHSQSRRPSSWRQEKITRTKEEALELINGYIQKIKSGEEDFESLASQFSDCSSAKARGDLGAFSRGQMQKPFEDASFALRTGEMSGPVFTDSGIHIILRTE
Protocol: In order to evaluate the inhibitory activities of the compounds of the present invention synthesized in Example 2 on the function of Pin1, an assay using cells was carried out according to a method previously developed by the present inventors (Yusuke Nakatsu et al., Journal of Biological Chemistry, 2015, Vol. 290, No. 40, pp. 24255-24266), using as an index the degree of phosphorylation of AMPK (AMP-activated protein kinase), whose phosphorylation is known to be suppressed by Pin1.
Briefly, 293T cells were plated on a 24-well plate coated with collagen. Forty-eight hours later, each compound (100 μM) synthesized in the Example was added to the plate, and the plate was left to stand in an incubator for 30 minutes. Thereafter, 10 mM 2-DG was added to the plate, and, 1 hour later, each sample was collected using a buffer containing mercaptoethanol and SDS.
According to conventional methods, SDS-PAGE and blotting were carried out, and then blocking was carried out with 3% BSA for 1 hour. Thereafter, reaction was carried out at normal temperature for 1 hour with each of a pAMPK antibody (Cell signaling 1:2000, Can get signal solution 1: diluted by Toyobo) as a primary antibody, and an HRP-linked anti rabbit IgG (GE healthcare 1:4000, Can get signal solution 2: diluted by Toyobo) as a secondary antibody, to perform detection.
As a compound to be compared, C1: (R)-2-(5-(4-methoxyphenyl)-2-methylfuran-3-carboxamido)-3-(naphthalene-6-yl)propanoic acid, which is an already reported Pin1 inhibitor, was used.
In FIG. 3, “-” indicates the degree of phosphorylation of AMPK in a case where no Pin1 inhibitor was added, and “C1”, “H-30”, “H-31”, “H-32”, and “H-33” indicate the degrees of phosphorylation of AMPK in cases where the respective Pin1 inhibitors were added. […] The inhibitory activity on the function of Pin1 was rated as follows based on comparison with the degree of inhibition by C1.

**Q.** Which Pin1 inhibitory activity does the source give for `O=C(Cc1c[nH]c2ccccc12)O[C@H](Cc1ccc2ccccc2c1)C(=O)O` [Compound H-180] here?
**A.** ++

**Q.** With `O=C(COc1ccccc1)O[C@H](Cc1ccc2ccccc2c1)C(=O)O` [Compound H-176] as the compound, how does the Pin1 inhibitory activity read?
**A.** ++

**Q.** For `O=C(O[C@H](Cc1ccc2ccccc2c1)C(=O)O)c1ccccc1Oc1ccccc1` [Compound H-132], which Pin1 inhibitory activity is on record?
**A.** +

**Q.** For `O=C(O)[C@@H](Cc1ccc2ccccc2c1)OC(=O)N1c2ccccc2Oc2ccccc21` [Compound H-157], which Pin1 inhibitory activity is on record?
**A.** ++

**Q.** Which Pin1 inhibitory activity does the source give for `O=C(O[C@H](Cc1ccc2ccccc2c1)C(=O)O)c1ccc(C(O)c2ccccc2)cc1` (stereo partly shown) [Compound H-23] here?
**A.** ++

**Q.** With `O=C(COc1ccc2ccccc2c1)O[C@H](Cc1ccc2ccccc2c1)C(=O)O` [Compound H-177] as the compound, how does the Pin1 inhibitory activity read?
**A.** ++

**Q.** Which Pin1 inhibitory activity does the source give for `O=C(O[C@H](Cc1ccc2ccccc2c1)C(=O)O)C(c1ccccc1)c1ccccc1` [Compound H-134] here?
**A.** ++

**Q.** With `O=C(O[C@H](Cc1ccc2ccccc2c1)C(=O)O)c1ccc(-c2ccccc2)cc1` [Compound H-33] as the compound, how does the Pin1 inhibitory activity read?
**A.** +

**Q.** For `O=C(O[C@H](Cc1ccc2ccccc2c1)C(=O)O)c1ccc(Oc2ccccc2)cc1` [Compound H-123], which Pin1 inhibitory activity is on record?
**A.** ++

**Q.** Which Pin1 inhibitory activity does the source give for `O=C(O[C@H](Cc1ccc2ccccc2c1)C(=O)OCc1ccccc1)c1ccc2ccccc2c1` [Compound H-21] here?
**A.** −

**Q.** Which Pin1 inhibitory activity does the source give for `COc1ccc(C(=O)O[C@H](Cc2ccc3ccccc3c2)C(=O)O)cc1OC` [Compound H-266] here?
**A.** +

**Q.** For `O=C(O[C@H](Cc1ccc2ccccc2c1)C(=O)O)c1cccc(Oc2ccccc2)c1` [Compound H-130], which Pin1 inhibitory activity is on record?
**A.** ++

**Q.** With `O=C(Cc1cccc2ccccc12)O[C@H](Cc1ccc2ccccc2c1)C(=O)O` [Compound H-151] as the compound, how does the Pin1 inhibitory activity read?
**A.** ++

**Q.** For `O=C(O[C@H](Cc1ccc2ccccc2c1)C(=O)O)c1ccc(Cl)c(Cl)c1` [Compound H-269], which Pin1 inhibitory activity is on record?
**A.** +

**Q.** With `CC(C)(C)OC(=O)N[C@@H](Cc1ccccc1)C(=O)O[C@H](Cc1ccc2ccccc2c1)C(=O)O` [Compound H-248] as the compound, how does the Pin1 inhibitory activity read?
**A.** +

**Q.** With `COc1cc(OC)cc(C(=O)O[C@H](Cc2ccc3ccccc3c2)C(=O)O)c1` [Compound H-198] as the compound, how does the Pin1 inhibitory activity read?
**A.** +

**Q.** Which Pin1 inhibitory activity does the source give for `COc1ccc(-c2cc(C(=O)O[C@H](Cc3ccc4ccccc4c3)C(=O)O)c(C)o2)cc1` [Compound H-32] here?
**A.** +

**Q.** With `O=C(O[C@@H](Cc1ccc2ccccc2c1)C(=O)O)C1c2ccccc2-c2ccccc21` [Compound H-141] as the compound, how does the Pin1 inhibitory activity read?
**A.** +++

**Q.** For `O=C(Cc1ccc2ccccc2c1)O[C@H](Cc1ccc2ccccc2c1)C(=O)O` [Compound H-149], which Pin1 inhibitory activity is on record?
**A.** +

**Q.** For `Cc1cc(C)cc(C(=O)O[C@H](Cc2ccc3ccccc3c2)C(=O)O)c1` [Compound H-210], which Pin1 inhibitory activity is on record?
**A.** +

**Q.** For `O=C(CC1c2ccccc2-c2ccccc21)O[C@H](Cc1ccc2ccccc2c1)C(=O)O` [Compound H-106], which Pin1 inhibitory activity is on record?
**A.** ++

**Q.** With `Cc1ccc(C(=O)O[C@H](Cc2ccc3ccccc3c2)C(=O)O)cc1C` [Compound H-265] as the compound, how does the Pin1 inhibitory activity read?
**A.** +

**Q.** With `O=C(O[C@H](Cc1ccc2ccccc2c1)C(=O)O)c1ccc2ccccc2c1` [Compound H-30] as the compound, how does the Pin1 inhibitory activity read?
**A.** ++

**Q.** Which Pin1 inhibitory activity does the source give for `O=C(COc1cccc2ccccc12)O[C@H](Cc1ccc2ccccc2c1)C(=O)O` [Compound H-179] here?
**A.** +++

**Q.** With `O=C(O)[C@@H](Cc1ccc2ccccc2c1)OC(=O)n1c2ccccc2c2ccccc21` [Compound H-175] as the compound, how does the Pin1 inhibitory activity read?
**A.** +++

**Q.** Which Pin1 inhibitory activity does the source give for `O=C(O[C@H](Cc1ccc2ccccc2c1)C(=O)O)c1ccc(F)c(F)c1` [Compound H-270] here?
**A.** +

**Q.** With `O=C(O[C@H](Cc1ccc2ccccc2c1)C(=O)O)c1cc(Cl)cc(Cl)c1` [Compound H-200] as the compound, how does the Pin1 inhibitory activity read?
**A.** +

same assay, conditions: cell-based experiment, 293T cells, 100 μM

**Q.** Which “inhibitory activity on Pin1 (stated in words)” value does the source give for `O=C(O[C@H](Cc1ccc2ccccc2c1)C(=O)OCc1ccccc1)c1ccc2ccccc2c1` [Compound H-21] here?
**A.** no inhibitory activity on Pin1

**Q.** For `O=C(O[C@@H](Cc1ccc2ccccc2c1)C(=O)O)C1c2ccccc2-c2ccccc21` [Compound H-141], which “inhibitory activity on Pin1 (stated in words)” value is on record?
**A.** both have inhibitory activities on Pin1

system: Pin1 protein; assay: Confirmation of Pin1 expression level in the intestinal tract of DSS mice (Example 7); type: in vivo; conditions: after 7 days of administration
Protocol: The expression level of Pin1 in the intestinal tract was measured for each mouse subjected to the therapeutic experiment in Example 5.
The present results also support that the compound synthesized in Example 2-7 (H-31) prevents development of ulcerative colitis.

**Q.** For `Nc1ccc(O)c(C(=O)O)c1` [Compound 5-ASA, 5-aminosalicylic acid, reference compound], which “increase in the Pin1 protein level in the intestinal tract” value is on record?
**A.** could not be ameliorated

system: model animals of ulcerative colitis (3% DSS); assay: Therapeutic experiment using model animals of ulcerative colitis 2 (Example 6); type: in vivo, C57BL6 mice; conditions: DSS mice, 5-ASA 300 mg/kg/day or 150 mg/kg/day
Protocol: To C57BL6 mice of 8 weeks old, 3% DSS (dextran sulfate sodium)-containing water or water (control) was administered by allowing the mice to drink it for 7 days. […] On Day 7 after the beginning of the administration, the body weight of each mouse was measured, and the large intestine was removed from the mouse, followed by carrying out histological study. […] In addition, an experiment for measuring the colon length was carried out.

**Q.** What does the source list for `Nc1ccc(O)c(C(=O)O)c1` [Compound 5-ASA, 5-aminosalicylic acid, reference compound]?
**A.** tissue damage in the large intestine (stained section): tissue damage in the large intestine due to DSS was found; weight loss: No significant effect was found

system: mice having induced inflammation of the large intestine; assay: not given; conditions: oral administration to mice, Non-patent Document 7; cited from earlier work

**Q.** Which “development of inflammation of the large intestine” value does the source give for `O=C1C=CC(=O)c2c(O)cccc21` [Juglone] here?
**A.** development of the inflammation can be suppressed

**Q.** Which “development of inflammation of the large intestine” value does the source give for `COc1ccc(-c2cc(C(=O)N[C@H](Cc3ccc4ccccc4c3)C(=O)O)c(C)o2)cc1` [Compound C1, (R)-2-(5-(4-methoxyphenyl)-2-methylfuran-3-carboxamido)-3-(naphthalene-6-yl)propanoic acid] here?
**A.** development of the inflammation can be suppressed
